Consider 32 compounds from the supplement of paper PMC6965134.

This data set can be described thus: TIMS collisional cross section (CCS, N2) of the lipid ion; higher = larger ion cross section. Conditions: ionization mode: negative, one isomer drawn. On the procedure:
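Lipid extracts of human plasma (NIST SRM 1950), mouse liver or HeLa cells were separated by nanoflow C18 LC (30 min gradient) and analysed by TIMS-PASEF on a timsTOF Pro. Ion mobility was calibrated with the Agilent tuning mix (negative mode ions) and converted to collisional cross sections (Mason–Schamp, N2).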

Where [1] appears, read: sample type: Human plasma, ion (formula + adduct): [C43H78NO8P-H] 1-.

± gives the standard deviation of the averaged measurements.
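Also: lipids from MTBE extraction, five replicate injections per sample, 100 ms TIMS ramp spanning 0.6–1.95 Vs/cm², lipid identity assigned from PASEF MS/MS spectra.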

With `CCCCCCCC/C=C\CCCCCCCC(=O)OC(COC(=O)CCCCCCCCCCCCCCC)COP(=O)(O)OCCN` (stereo not given) [PE 16:0_18:1], the “TIMS collisional cross section” value is 268.4 Å² (sample type: Human plasma, ion (formula + adduct): [C39H76NO8P-H] 1-) and 268.4 Å² (sample type: Mouse Liver, ion (formula + adduct): [C39H76NO8P-H] 1-).

As to `CC/C=C\C/C=C\C/C=C\CCCCCCCC(=O)O[C@H](COC(=O)CCCCCCCCCCCCC)COP(=O)([O-])OCC[N+](C)(C)C` [PC 14:0@_18:3], for the setting “sample type: Human plasma, ion (formula + adduct): [C40H74NO8P+HCOO] 1-”, the “TIMS collisional cross section” value turned out to be 284.9 Å². Turning to `CCCCCCCC/C=C\CCCCCCCC(=O)OC[C@@H](O)COP(=O)(O)OC[C@@H](O)CO` [LPG 18:1_0:0], the “TIMS collisional cross section” value (sample type: Mouse Liver, ion (formula + adduct): [C24H47O9P-H] 1-) is 221.1 Å².

Turning to `CCCCCCCCCCCCCCCCCC(=O)O[C@H](COC(=O)CCCCCCCCCCCCCC)COP(=O)([O-])OCC[N+](C)(C)C` [PC 15:0_18:0@], the “TIMS collisional cross section” value (sample type: Human plasma, ion (formula + adduct): [C41H82NO8P+HCOO] 1-) was 291.1 Å². On to `CC/C=C\C/C=C\C/C=C\C/C=C\C/C=C\C/C=C\CCC(=O)OC[C@H](COP(=O)(O)OC[C@@H](O)CO)OC(=O)CCCCC/C=C\C/C=C\C/C=C\C/C=C\CCCCC` [PG 22:6@_22:4], for which the “TIMS collisional cross section” value (sample type: Mouse Liver, ion (formula + adduct): [C50H79O10P-H] 1-) is on record as 297.7 Å².

On to `CCCCC/C=C\C/C=C\C/C=C\C/C=C\CCCC(=O)O[C@H](COC(=O)CCCCCCCCCCCCCCCCC)COP(=O)(O)OCCN` [PE 18:0_20:4], for which the “TIMS collisional cross section” value was 276.8 Å² under setting [1] and 276.57 ± 0.29 Å² (sample type: Mouse Liver, ion (formula + adduct): [C43H78NO8P-H] 1-). On to `CCCCCCCC/C=C\CCCCCCCC(=O)O[C@@H](CO)COC(=O)CCCCCCCCCCCC` [DG 13:0_18:1@_0:0], for which, where the note is “sample type: Mouse Liver, ion (formula + adduct): [C34H64O5+AcO] 1-”, the “TIMS collisional cross section” value is reported as 252.3 Å². As for `CCCCCCCCCCCCCCCC(=O)OC[C@H](COP(=O)([O-])OCC[N+](C)(C)C)OC(=O)CCCCCCCC(=O)O` [Oxidized PC 16:0_9:0@], the “TIMS collisional cross section” value (sample type: Mouse Liver, ion (formula + adduct): [C33H64NO10P-CH3] 1-) was 255.5 Å². Regarding `CCCCC/C=C\C/C=C\C/C=C\C/C=C\CCCC(=O)OC[C@@H](O)COP(=O)(O)O` [LPA 20:4_0:0], the “TIMS collisional cross section” value (sample type: Human plasma, ion (formula + adduct): [C23H39O7P-H] 1-) came out at 207.1 Å².

As to `CCCCCCCCCCCCCCCCCC(=O)OC[C@@H](O)COP(=O)(O)OCCN` [LPE 18:0_0:0], the “TIMS collisional cross section” value (sample type: Human plasma, ion (formula + adduct): [C23H48NO7P-CH3] 1-) is listed as 214.1 Å²; the “TIMS collisional cross section” value (sample type: Human plasma, ion (formula + adduct): [C23H48NO7P-H] 1-) is given as 218.1 Å²; the “TIMS collisional cross section” value (sample type: Mouse Liver, ion (formula + adduct): [C23H48NO7P-H] 1-) worked out at 217.5 ± 0.6 Å². As for `CC/C=C\C/C=C\C/C=C\C/C=C\C/C=C\C/C=C\CCC(=O)O[C@H](CO/C=C\CCCCCC/C=C\CCCCCCCC)COP(=O)(O)OCCN` [PE P- 18:1@_22:6], the “TIMS collisional cross section” value (sample type: Mouse Liver, ion (formula + adduct): [C45H76NO7P-H] 1-) stood at 278.5 Å². Take `CCCCC/C=C\C/C=C\CCCCCCCCCCCC(=O)OC[C@@H](O)COP(=O)([O-])OCC[N+](C)(C)C` [LPC 22:2_0:0]: where the note is “sample type: Human plasma, ion (formula + adduct): [C30H58NO7P+HCOO] 1-”, the “TIMS collisional cross section” value stood at 254.2 Å². As to `CCCCC/C=C\C[C@H](O)/C=C/C=C\C/C=C\CCCC(=O)O[C@H](CO/C=C\CCCCCCCCCCCCCCCC)COP(=O)(O)OCCN` [Oxidized PE 18:0@_20:4], the “TIMS collisional cross section” value under setting [1] was 280.43 ± 1.2 Å². With `CCCCCCCCCC/C=C\CCCCCCCC(=O)O[C@H](COCCCCCCCCCCCCCCCC)COP(=O)([O-])OCC[N+](C)(C)C` [PC O- 16:0@_20:1], the “TIMS collisional cross section” value (sample type: Mouse Liver, ion (formula + adduct): [C44H88NO7P-CH3] 1-) came to 279.7 Å². As for `CCCCC/C=C\C/C=C\C/C=C\C/C=C\CCCC(=O)O[C@H](COC(=O)CCCC/C=C\C/C=C\C/C=C\CCCCC)COP(=O)([O-])OCC[N+](C)(C)C` [PC 18:3@_20:4], the “TIMS collisional cross section” value reads like this: (sample type: Mouse Liver, ion (formula + adduct): [C46H78NO8P+HCOO] 1-) 296 Å²; (sample type: Mouse Liver, ion (formula + adduct): [C46H78NO8P-CH3] 1-) 277.2 Å². Take `CCCCC/C=C\C/C=C\C/C=C\C/C=C\CCCC(=O)OC[C@H](COP(=O)(O)OCCN)OC(=O)CCCCCCCCCCCCCCCCCCCCC` [PE 20:4_22:0]: the “TIMS collisional cross section” value (sample type: Mouse Liver, ion (formula + adduct): [C47H86NO8P-H] 1-) turned out to be 288 Å².

Take `CCCCC/C=C\C/C=C\CCCCCCCC(=O)O[C@H](COC(=O)CCCCCCC/C=C\CCCCCCC)COP(=O)(O)OCCN` [PE 17:1_18:2]: under “sample type: Mouse Liver, ion (formula + adduct): [C40H74NO8P-H] 1-”, the “TIMS collisional cross section” value was determined as 267.7 Å². With `CCCCC/C=C\C/C=C\C/C=C\C/C=C\CCCC(=O)O[C@H](COC(=O)CCCCCCC/C=C\CCCCCCCC)COP(=O)([O-])OCC[N+](C)(C)C` [PC 18:1@_20:4], the “TIMS collisional cross section” value (sample type: Human plasma, ion (formula + adduct): [C46H82NO8P+HCOO] 1-) is given as 298.3 Å². Turning to `CCCCC/C=C\C/C=C\CCCCCCCC(=O)O[C@H](COC(=O)CCCCCCC/C=C\CCCCCC)COP(=O)([O-])OCC[N+](C)(C)C` [PC 16:1_18:2], the “TIMS collisional cross section” value reads like this: (sample type: Mouse Liver, ion (formula + adduct): [C42H78NO8P+HCOO] 1-) 288.8 Å²; (sample type: Mouse Liver, ion (formula + adduct): [C42H78NO8P-CH3] 1-) 270.5 Å². `CCCCC/C=C\C/C=C\CCCCCCCC(=O)O[C@H](COC(=O)CCCCCCCCCCCCCCC)COP(=O)(O)OC[C@@H](O)CO` [PG 16:0_18:2]: the “TIMS collisional cross section” value (sample type: Mouse Liver, ion (formula + adduct): [C40H75O10P-H] 1-) was 273.4 Å². Turning to `CCCCCCCC/C=C\CCCCCCCCCC(=O)O[C@H](COC(=O)CCCCCCCCCCCCCCCCC)COP(=O)([O-])OCC[N+](C)(C)C` [PC 18:0_20:1], the “TIMS collisional cross section” value (sample type: Mouse Liver, ion (formula + adduct): [C46H90NO8P+HCOO] 1-) was 302.3 Å². As to `CCCCC/C=C\C/C=C\C/C=C\C/C=C\CCCCCC(=O)OC[C@H](COP(=O)(O)OC[C@H](N)C(=O)O)OC(=O)CCCCCCCCCCCCCCCCC` [PS 22:4_18:0], under “sample type: Mouse Liver, ion (formula + adduct): [C46H82NO10P-H] 1-”, the “TIMS collisional cross section” value amounted to 291.4 Å². As for `CCCCC/C=C\C/C=C\CCCCCCCC(=O)O[C@H](COC(=O)CCCCCCC/C=C\CCCCCCCC)COP(=O)(O)OCCN` [PE 18:1_18:2], for the setting “sample type: Human plasma, ion (formula + adduct): [C41H76NO8P-H] 1-”, the “TIMS collisional cross section” value is on record as 272 Å². On to `CCCCC/C=C\C/C=C\CCCCCCCC(=O)OCC(COP(=O)(O)OCCN)OC(=O)CCCCCCC/C=C\C/C=C\CCCCC` (stereo not given) [PE 18:2_18:2], for which the “TIMS collisional cross section” value is, setting by setting: (sample type: Human plasma, ion (formula + adduct): [C41H74NO8P-H] 1-) 268.8 Å²; (sample type: Mouse Liver, ion (formula + adduct): [C41H74NO8P-H] 1-) 268.8 Å². For `C=CCCC(=O)O[C@H](COC(=O)CCCCCCCCCCCCCCC)COP(=O)([O-])OCC[N+](C)(C)C` [PC 16:0_5:1], the “TIMS collisional cross section” value (sample type: Mouse Liver, ion (formula + adduct): [C29H56NO8P+AcO] 1-) stood at 252.1 Å². With `CCCCC/C=C\C/C=C\C/C=C\C/C=C\CCCC(=O)O[C@H](COC(=O)CCCCCCCCCCCCC)COP(=O)([O-])OCC[N+](C)(C)C` [PC 14:0_20:4], the “TIMS collisional cross section” value reads like this: (sample type: Human plasma, ion (formula + adduct): [C42H76NO8P+HCOO] 1-) 288.2 Å²; (sample type: Mouse Liver, ion (formula + adduct): [C42H76NO8P+AcO] 1-) 290.4 Å². For the compound `CCCCC/C=C\C/C=C\CCCCCCCC(=O)OC(COC(=O)CCCCCCCCCCCCCCCCC)COP(=O)(O)OCCN` (stereo not given) [PE 18:0_18:2], the “TIMS collisional cross section” value (sample type: Mouse Liver, ion (formula + adduct): [C41H78NO8P-H] 1-) was 272.8 Å². As for `CCCCC/C=C\C/C=C\C/C=C\CCCCCCC(=O)O[C@H](COC(=O)CCCCCCC/C=C\CCCCCC)COP(=O)([O-])OCC[N+](C)(C)C` [PC 16:1_20:3], the “TIMS collisional cross section” value (sample type: Mouse Liver, ion (formula + adduct): [C44H80NO8P-CH3] 1-) came out at 276.2 Å².

With `CC/C=C\C/C=C\C/C=C\C/C=C\C/C=C\CCCC(=O)O[C@H](CO/C=C\CCCCCCCCCCCCCCCC)COP(=O)([O-])OCC[N+](C)(C)C` [PC P- 18:0@_20:5], the “TIMS collisional cross section” value (sample type: Human plasma, ion (formula + adduct): [C46H82NO7P+HCOO] 1-) is 296.1 Å².

For `CCCCC/C=C\C/C=C\C/C=C\C/C=C\CCCC(=O)OC[C@@H](O)COP(=O)(O)OCCN` [LPE 20:4_0:0], the “TIMS collisional cross section” value (sample type: Mouse Liver, ion (formula + adduct): [C25H44NO7P-H] 1-) worked out at 217.3 Å². With `CCCCC/C=C\C/C=C\C/C=C\C/C=C\CCCCCC(=O)O[C@H](COC(=O)CCCCCCCCCCCCCCC)COP(=O)(O)OCCN` [PE 16:0_22:4], the “TIMS collisional cross section” value under setting [1] was determined as 276.8 Å².

On to `CC/C=C\C/C=C\C/C=C\C/C=C\CCCCC(=O)O[C@H](COC(=O)CCCCCCCCCCCCCCC)COP(=O)([O-])OCC[N+](C)(C)C` [PC 16:0@_18:4], for which, where the note is “sample type: Mouse Liver, ion (formula + adduct): [C42H76NO8P+HCOO] 1-”, the “TIMS collisional cross section” value was 287.6 Å².
